The target in one data set is PDE2 (Homo sapiens, UniProt O00408). As to the kind of experiment: In vitro PDE2 enzymatic inhibition assay (Bio-cAMP substrate, AlphaScreen detection).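 On all read-outs here: enzyme reaction run 0.5 h, then anti-cAMP acceptor and streptavidin donor beads added for 1 h in the dark before plate reading, compounds serially diluted from DMSO stock.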 Type of data set: biochemical. To be noted: for IC50: in vitro, Bio-cAMP as substrate, mean of at least three experiments; for PDE2 inhibitory activity (result in words): enzyme level.
Sequence of PDE2 (O00408 whole entry): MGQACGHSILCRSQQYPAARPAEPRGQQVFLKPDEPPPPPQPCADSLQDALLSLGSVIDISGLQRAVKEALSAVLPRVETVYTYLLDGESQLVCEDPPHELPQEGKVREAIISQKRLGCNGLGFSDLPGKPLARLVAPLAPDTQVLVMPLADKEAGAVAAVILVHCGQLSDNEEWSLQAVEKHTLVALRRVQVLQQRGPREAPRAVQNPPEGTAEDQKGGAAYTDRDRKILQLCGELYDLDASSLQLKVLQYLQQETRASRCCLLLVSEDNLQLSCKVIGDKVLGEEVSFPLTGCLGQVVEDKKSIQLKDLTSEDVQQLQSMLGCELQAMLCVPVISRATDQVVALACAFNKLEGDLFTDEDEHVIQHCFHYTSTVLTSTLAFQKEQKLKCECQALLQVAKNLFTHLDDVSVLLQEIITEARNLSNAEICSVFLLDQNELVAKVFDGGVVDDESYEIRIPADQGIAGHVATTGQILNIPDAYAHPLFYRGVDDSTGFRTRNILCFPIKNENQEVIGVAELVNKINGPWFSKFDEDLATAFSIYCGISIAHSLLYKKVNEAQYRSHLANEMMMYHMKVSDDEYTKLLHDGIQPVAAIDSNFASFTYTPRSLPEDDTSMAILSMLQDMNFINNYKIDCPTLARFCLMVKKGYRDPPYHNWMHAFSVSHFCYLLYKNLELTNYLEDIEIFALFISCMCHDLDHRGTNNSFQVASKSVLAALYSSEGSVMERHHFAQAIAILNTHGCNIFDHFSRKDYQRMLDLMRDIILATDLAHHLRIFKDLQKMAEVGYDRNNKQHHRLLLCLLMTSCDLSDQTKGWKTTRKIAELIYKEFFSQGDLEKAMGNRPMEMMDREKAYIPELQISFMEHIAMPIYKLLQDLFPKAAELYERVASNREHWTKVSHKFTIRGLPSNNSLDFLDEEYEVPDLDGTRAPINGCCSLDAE

Method for PDE2: Preparation of 1*Rection Buffer: we took 1 mL 10*Rection Buffer, added 9 mL ultra-pure water to swirl and mix well, and put it on ice; preparation of PDE2 solution: 210 μL of 1*Rection Buffer were added into a centrifuge tube, then 30 μL PDE2 were added, mixed well, equal to 8-times dilution, and placed on ice; preparation of compound solution with gradient concentration: DMSO was used as the solvent to prepare 10 mM compound solution, and then diluted with 1*Rection Buffer.
We took 2 μL of the diluted compound solution of each concentration into the microplate, added 4 μL PDE2 solution, numbered them A1–A9, added 2 μL 1*Rection Buffer and 4 μL PDE2 into A10, added 2 μL compound solution and 4 μL 1*Rection Buffer to A11, added 6 μL 1*Rection Buffer to A13, and ensured the three groups are parallel to each other. […] The reaction time was 0.5 h in the microporous plate thermostatic oscillator.
Anti-Camp Alohascreen Acceptor and Streptavidin Coated Donor Bead were purchased from Perkin Elmer Company according to response volume: 1* Immunoassay Buffer 549.32 μL and 3.70 μL anti-cAMP AlohaScreen Acceptor were collected under dark conditions. We took 1.98 μL Streptavidin coated Donor Bead, mixed well, added 15 μL mixture to each well after 1 h reaction, and reacted it in the dark for 1 h. After the reaction, we tested it with multilabel microplate detector.

`COc1ccc2c(c1)oc(=O)c1ccccc12` [Compound 1a, 3-Methoxy-6H-benzo[c]chromen-6-one]: on PDE2, the IC50 came to 28.8 ± 7.8 µM.
In the case of `CCOc1ccc2c(c1)oc(=O)c1ccccc12` [Compound 1b, Ethoxy-6H-benzo[c]chromen-6-one], the melting point fell in the range of 115.2 to 117.7 °C. For the same compound, half-maximal inhibition against PDE2 (IC50) required 25.4 ± 5.13 µM.
Compound `CC(C)Oc1ccc2c(c1)oc(=O)c1ccccc12` [Compound 1c, 3-Isopropoxy-6H-benzo[c]chromen-6-one] yielded a melting point of 58.7 to 59.1 °C. This compound also yielded an IC50 at PDE2 of 25.8 ± 5.45 µM.
At PDE2, `CCCOc1ccc2c(c1)oc(=O)c1ccccc12` [Compound 1d, 3-Propoxy-6H-benzo[c]chromen-6-one] came in with an IC50 above 50 µM.
Compound `CCC(C)Oc1ccc2c(c1)oc(=O)c1ccccc12` (stereo not shown) [Compound 1e, 3-(Sec-butoxy)-6H-benzo[c]chromen-6-one] came in with a melting point of 73.2 to 75.8 °C. In addition, at PDE2, the IC50 came to 37.7 ± 4.9 µM.
In turn, `CCCCCOc1ccc2c(c1)oc(=O)c1ccccc12` [Compound 1g, 3-(pentyloxy)-6H-benzo[c]chromen-6-one] returned a melting point of 69.4 to 71.8 °C. The IC50 at PDE2 was above 50 µM.
`CCOC(=O)COc1ccc2c(c1)oc(=O)c1ccccc12` [Compound 1h, ethyl 2-((6-oxo-6H-benzo[c]chromen-3-yl)oxy)acetate] came in with a melting point of 124.7 to 125.8 °C. On PDE2, the “PDE2 inhibitory activity (result in words)” value (from here on “PDE2 inhibitory activity”) is given as “good PDE2 inhibitory activity” and inhibition was half-maximal at 18.7 ± 2.72 µM (IC50).
For `O=c1oc2cc(OCC3CCOCC3)ccc2c2ccccc12` [Compound 1i, 3-((tetrahydro-2H-pyran-4-yl)methoxy)-6H-benzo[c]chromen-6-one] the same measures were 133 to 134.8 °C, “good PDE2 inhibitory activity” and 17.9 ± 1.87 µM.
With `O=c1oc2cc(OCCn3cccn3)ccc2c2ccccc12` [Compound 1k, 3-(2-(1H-pyrazol-1-yl)ethoxy)-6H-benzo[c]chromen-6-one], the melting point fell in the range of 164.3 to 166.6 °C. Besides, the IC50 against PDE2 is above 50 µM.
The compound `O=c1oc2cc(Oc3ncccn3)ccc2c2ccccc12` [Compound 1l, 3-(Pyrimidin-2-yloxy)-6H-benzo[c]chromen-6-one] came in with a melting point of 174 to 176.6 °C. On PDE2, the “PDE2 inhibitory activity” value was “good PDE2 inhibitory activity” and 19.3 ± 2.38 µM corresponded to half-maximal inhibition (IC50).
With `O=c1oc2cc(OCCO)ccc2c2ccccc12` [Compound 1m, 3-(2-Hydroxyethoxy)-6H-benzo[c]chromen-6-one], the melting point lay within 125.7 to 126.4 °C. The IC50 on PDE2 is above 50 µM.
In the same order, the values of `O=c1oc2cc(OCC3CCCO3)ccc2c2ccccc12` (stereo not shown) [Compound 1n, 3-((Tetrahydrofuran-2-yl)methoxy)-6H-benzo[c]chromen-6-one] are 82.8 to 84.1 °C and 27.5 ± 1.49 µM.
Take `O=c1oc2cc(OCC3OCCO3)ccc2c2ccccc12` [Compound 1o, 3-((1,3-Dioxolan-2-yl)methoxy)-6H-benzo[c]chromen-6-one]: the melting point was 135.6 to 137.8 °C. At PDE2, this compound yielded an IC50 above 50 µM.
Turning to `COc1cc(COc2ccc3c(c2)oc(=O)c2ccccc23)cc(OC)c1` [Compound 1p, 3-((3,5-Dimethoxybenzyl)oxy)-6H-benzo[c]chromen-6-one], the melting point lay in the range of 133.8 to 135 °C. This compound also had an IC50 against PDE2 above 50 µM.
`Cc1cc(COc2ccc3c(c2)oc(=O)c2ccccc23)n(C)n1` [Compound 1q, 3-((1,3-Dimethyl-1H-pyrazol-5-yl)methoxy)-6H-benzo[c]chromen-6-one] returned a melting point of 165.1 to 167.6 °C. Moreover, the IC50 at PDE2 was above 50 µM.
On to `O=c1oc2cc(OCc3cccnc3)ccc2c2ccccc12` [Compound 1r, 3-(Pyridin-3-ylmethoxy)-6H-benzo[c]chromen-6-one], for which the IC50 against PDE2 was found to be 27.6 ± 2.14 µM.
`O=c1oc2cc(OCC3CCCC3)ccc2c2ccccc12` [Compound 1s, 3-(Cyclopentylmethoxy)-6H-benzo[c]chromen-6-one]: the melting point fell in the range of 90.6 to 91.2 °C. For the same compound, at PDE2, the “PDE2 inhibitory activity” value is on record as “good PDE2 inhibitory activity” and the IC50 worked out at 8.14 ± 0.54 µM.
Turning to `O=c1oc2cc(OCc3ccc(CO)cc3)ccc2c2ccccc12` [Compound 1t, 3-((4-[Hydroxymethyl]benzyl)oxy)-6H-benzo[c]chromen-6-one], the melting point is 147 to 149.2 °C. The IC50 against PDE2 was above 50 µM.
For `O=c1oc2cc(OCCN3CCOCC3)ccc2c2ccccc12` [Compound 1u, 3-(2-Morpholinoethoxy)-6H-benzo[c]chromen-6-one], the melting point lay in the range of 100.8 to 102.8 °C. This compound returned an IC50 against PDE2 above 50 µM.
`COc1ccc2c(c1)oc(=O)c1cc(OC)ccc12` [Compound 2a, 3,8-Dimethoxy-6H-benzo[c]chromen-6-one] displayed an IC50 against PDE2 above 50 µM.
As to `CCOc1ccc2c(c1)oc(=O)c1cc(OC)ccc12` [Compound 2b, 3-Ethoxy-8-methoxy-6H-benzo[c]chromen-6-one], the melting point lay within 141.1 to 143.8 °C. At PDE2, this compound came in with a half-inhibitory concentration (IC50) above 50 µM.
`CCCOc1ccc2c(c1)oc(=O)c1cc(OC)ccc12` [Compound 2c, 8-Methoxy-3-propoxy-6H-benzo[c]chromen-6-one] showed a melting point of 109.3 to 111.6 °C. In addition, the IC50 against PDE2 is above 50 µM.
The compound `CCC(C)Oc1ccc2c(c1)oc(=O)c1cc(OC)ccc12` (stereo not shown) [Compound 2d, 3-(Sec-butoxy)-8-methoxy-6H-benzo[c]chromen-6-one] gave a melting point of 64.5 to 66.7 °C. Besides, the IC50 against PDE2 is above 50 µM.
Regarding `CCCCOc1ccc2c(c1)oc(=O)c1cc(OC)ccc12` [Compound 2e, 3-Butoxy-8-methoxy-6H-benzo[c]chromen-6-one], the melting point was in the range of 102.5 to 104.4 °C. Also, on PDE2, the “PDE2 inhibitory activity” value is “good PDE2 inhibitory activity” and the IC50 turned out to be 17.8 ± 4.07 µM.
Compound `CCCCCOc1ccc2c(c1)oc(=O)c1cc(OC)ccc12` [Compound 2f, 8-Methoxy-3-(pentyloxy)-6H-benzo[c]chromen-6-one] gave a melting point of 73.1 to 75.5 °C. This compound displayed an IC50 against PDE2 above 50 µM.
For `COc1ccc2c(c1)c(=O)oc1cc(OC(C)C)ccc12` [Compound 2g, 3-Isopropoxy-8-methoxy-6H-benzo[c]chromen-6-one] the same measures were 88.3 to 90.7 °C and 30.3 ± 7.38 µM.
For `COc1ccc2c(c1)c(=O)oc1cc(OCCO)ccc12` [Compound 2h, 3-(2-Hydroxyethoxy)-8-methoxy-6H-benzo[c]chromen-6-one] the same measures were 166.8 to 168 °C and above 50 µM.
With `CCOC(=O)COc1ccc2c(c1)oc(=O)c1cc(OC)ccc12` [Compound 2j, Ethyl 2-((8-methoxy-6-oxo-6H-benzo[c]chromen-3-yl)oxy)acetate], at PDE2, the IC50 is above 50 µM.
`COc1ccc2c(c1)c(=O)oc1cc(OCC3CCCC3)ccc12` [Compound 2k, 3-(Cyclopentylmethoxy)-8-methoxy-6H-benzo[c]chromen-6-one] had a half-inhibitory concentration (IC50) against PDE2 above 50 µM.
Compound `COc1ccc2c(c1)c(=O)oc1cc(Oc3ncccn3)ccc12` [Compound 2v, 8-Methoxy-3-(pyrimidin-2-yloxy)-6H-benzo[c]chromen-6-one] displayed a melting point of 212.3 to 214 °C.

The term IC50 denotes the concentration that inhibits the measured activity by half. The term melting point denotes the temperature, or range, at which the solid turns liquid.
